Data from article PMC11620503 (Antimicrobial Agents and Chemotherapy, 2024).
Values after ≈ are worked out from the molar mass of the structure shown.

What was measured:
Experiment in all cases: MIC, broth microdilution
Format in all cases: cell-based
[1] = test system: MEM-nonsusceptible Enterobacterales; settings: MEM-nonsusceptible Enterobacterales (127), cefiderocol 126 isolates
[2] = test system: serine-carbapenemase-producing isolates (Enterobacterales); settings: Enterobacterales with serine-carbapenemases (80)
[3] = test system: E. coli CDC-119 (NDM-1), PBP3 mutations; settings: Escherichia coli
[4] = test system: E. coli CDC-149 (NDM-7), PBP3 mutations; settings: Escherichia coli
[5] = test system: E. coli CDC-151 (NDM-5), PBP3 mutations; settings: Escherichia coli, fixed BLI concentration (μg/mL) in parentheses in label
[6] = test system: E. coli CDC-162 (NDM-7), PBP3 mutations; settings: Escherichia coli
[7] = test system: MEM-nonsusceptible Enterobacterales with serine-carbapenemases; settings: MEM-nonsusceptible Enterobacterales with serine-carbapenemases (58)
[8] = CLSI breakpoints, marked c: breakpoints for β-lactam alone, tigecycline: FDA breakpoints
[9] = fixed concentration (μg/mL) in label, read-out: MIC50
[10] = fixed concentration (μg/mL) in label, read-out: MIC90
[11] = fixed concentration (μg/mL) in label

Question: How did the “CLSI MIC interpretation I (intermediate)” value [1, 8] turn out when `CC(C)(O/N=C(\C(=O)N[C@@H]1C(=O)N2C(C(=O)[O-])=C(C[N+]3(CCNC(=O)c4ccc(O)c(O)c4Cl)CCCC3)CS[C@H]12)c1csc(N)n1)C(=O)O` [FDC, cefiderocol] was run?
Answer: Its value is 3.2%.

Question: And the “CLSI MIC interpretation R (resistant)” value [1, 8]?
Answer: The value was 0.8%.

Question: And the “CLSI MIC interpretation S (susceptible)” value [1, 8]?
Answer: Its value is 96%.

Question: And the MIC50 [1, 9]?
Answer: The MIC50 was 1 µg/mL (≈ 1.33 µM).

Question: And the MIC90 [1, 10]?
Answer: Its MIC90 is 2 µg/mL (≈ 2.66 µM).

Question: And the “CLSI MIC interpretation I (intermediate)” value [2, 8]?
Answer: The value was 0%.

Question: What about the “CLSI MIC interpretation R (resistant)” value [2, 8] of the same compound?
Answer: Its value is 0%.

Question: And the “CLSI MIC interpretation S (susceptible)” value [2, 8]?
Answer: The value was 100%.

Question: And the “MIC Range” value [2, 11]?
Answer: Its value is no more than 0.06 to 4 µg/mL.

Question: What about the MIC50 [2, 9] of the same compound?
Answer: The MIC50 was 0.25 µg/mL (≈ 0.332 µM).

Question: And the MIC90 [2, 10]?
Answer: The MIC90 was 2 µg/mL (≈ 2.66 µM).

Question: And the MIC [3]?
Answer: The MIC was 0.5 µg/mL (≈ 0.665 µM).

Question: What about the MIC [4] of the same compound?
Answer: The MIC was 16 µg/mL (≈ 21.3 µM).

Question: What about the MIC [5] of the same compound?
Answer: The MIC was 4 µg/mL (≈ 5.32 µM).

Question: And the MIC [6]?
Answer: Its MIC is 8 µg/mL (≈ 10.6 µM).

Question: What about the “CLSI MIC interpretation I (intermediate)” value [7, 8] of the same compound?
Answer: Its value is 0%.

Question: What about the “CLSI MIC interpretation R (resistant)” value [7, 8] of the same compound?
Answer: Its value is 0%.

Question: What about the “CLSI MIC interpretation S (susceptible)” value [7, 8] of the same compound?
Answer: The value was 100%.

Question: And the “MIC Range” value [7, 11]?
Answer: The value was no more than 0.06 to 4 µg/mL.

Question: And the MIC50 [7, 9]?
Answer: The MIC50 was 0.5 µg/mL (≈ 0.665 µM).

Question: And the MIC90 [7, 10]?
Answer: The MIC90 was 2 µg/mL (≈ 2.66 µM).
